This passage reports IC50 and Kd results from ChEMBL document CHEMBL5500327, “Targeting insulin-like growth factor 2 mRNA-binding proteins (IGF2BPs) for the treatment of cancer” (Eur J Med Chem, 2024).

In series [1] the target is Insulin-like growth factor 2 mRNA-binding protein 2 (Homo sapiens, UniProt Q9Y6M1). The series can be described thus: Binding affinity to Histidine-tagged IMP-2 (unknown origin) assessed as dissociation constant by fluorescence polarization assay.
Series [2] is described as follows: Cytotoxicity against human Huh-7 cells assessed as reduction in cell viability incubated for 24 hrs by MTT assay.
In series [3] the target is T1, Insulin-like growth factor 2 mRNA-binding protein 1 (Homo sapiens, UniProt Q9NZI8). The series can be described thus: Binding affinity to human recombinant IGF2BP1 assessed as dissociation constant by SPR analysis.
The subject of another series is THP-1. As to the kind of experiment: Antiproliferative activity against human THP-1 cells assessed as reduction in cell growth incubated for 24 hrs by MTT assay. The following applies: THP-1, 24 h.
The next series concerns K562. The series can be described thus: Antiproliferative activity against human K562 cells assessed as reduction in cell viability incubated for 24 hrs by MTT assay. The following applies: K562, 24 h.
For the next series, the system named is HL-60. As to the kind of experiment: Antiproliferative activity against human HL-60 cells assessed as reduction in cell viability incubated for 24 hrs by MTT assay. The following applies: HL-60, 24 h.
Series [4] is described as follows: Inhibition of full length IMP-1 (unknown origin) binding to fluorescein labeled 93 nucleotide c-Myc mRNA expressed in Escherichia coli BL21 (DE3) pLysS by FAMA method.
The target of series [5] is T1, Insulin-like growth factor 2 mRNA-binding protein 1. As to the kind of experiment: Binding affinity to IGF2BP1 (unknown origin) assessed as dissociation constant by MST assay.
The next series has as its system NCI-H1299. As to the kind of experiment: Antiproliferative activity against human NCI-H1299 cells assessed as reduction in cell growth incubated for 24 hrs by MTT assay. The following applies: NCI-H1299, 24 h.
For series [6], the target named is T1, Insulin-like growth factor 2 mRNA-binding protein 1. The series can be described thus: Inhibition of full length recombinant IGF2BP1 (unknown origin) by fluorescence polarization assay.

T1 sequence (Q9NZI8 whole entry): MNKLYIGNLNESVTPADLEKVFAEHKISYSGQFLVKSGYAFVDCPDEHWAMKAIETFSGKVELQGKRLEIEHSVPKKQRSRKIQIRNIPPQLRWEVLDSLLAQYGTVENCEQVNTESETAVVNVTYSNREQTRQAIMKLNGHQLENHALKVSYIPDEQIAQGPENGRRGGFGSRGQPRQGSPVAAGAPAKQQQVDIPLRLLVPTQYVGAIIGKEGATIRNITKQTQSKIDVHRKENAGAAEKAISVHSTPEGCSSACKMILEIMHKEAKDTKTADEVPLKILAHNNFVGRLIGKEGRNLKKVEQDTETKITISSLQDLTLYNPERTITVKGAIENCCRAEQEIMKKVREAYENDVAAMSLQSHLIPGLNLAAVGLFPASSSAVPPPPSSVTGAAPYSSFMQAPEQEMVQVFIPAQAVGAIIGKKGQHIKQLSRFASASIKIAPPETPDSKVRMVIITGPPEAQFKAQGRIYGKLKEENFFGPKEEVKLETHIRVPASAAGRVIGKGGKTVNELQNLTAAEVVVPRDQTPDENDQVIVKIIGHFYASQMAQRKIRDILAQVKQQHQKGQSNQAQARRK
Insulin-like growth factor 2 mRNA-binding protein 2, sequence (Q9Y6M1 whole entry): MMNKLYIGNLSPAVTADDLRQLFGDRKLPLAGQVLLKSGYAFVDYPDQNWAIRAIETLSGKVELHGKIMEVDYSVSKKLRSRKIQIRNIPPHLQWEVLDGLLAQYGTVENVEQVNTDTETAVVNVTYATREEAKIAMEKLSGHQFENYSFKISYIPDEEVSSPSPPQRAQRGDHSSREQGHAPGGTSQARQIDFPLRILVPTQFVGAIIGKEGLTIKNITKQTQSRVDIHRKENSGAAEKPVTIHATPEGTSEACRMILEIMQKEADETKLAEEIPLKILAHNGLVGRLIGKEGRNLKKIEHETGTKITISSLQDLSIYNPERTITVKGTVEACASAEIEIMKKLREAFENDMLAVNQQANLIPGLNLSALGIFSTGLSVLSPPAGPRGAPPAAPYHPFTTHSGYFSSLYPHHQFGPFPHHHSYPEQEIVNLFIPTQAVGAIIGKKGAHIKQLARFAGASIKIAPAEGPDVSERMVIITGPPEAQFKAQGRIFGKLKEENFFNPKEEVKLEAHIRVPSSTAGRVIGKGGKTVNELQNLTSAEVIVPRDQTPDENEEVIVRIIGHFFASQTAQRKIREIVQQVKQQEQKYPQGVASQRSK

For `CCCN(CCc1ccccc1)C(=O)Nc1cc(-c2ccc(Cl)c(Cl)c2)sc1C(=O)O`, the IC50 in [1] worked out at 65.3 µM.
Still for that read-out and setting: the figure for `CCN(Cc1ccccc1)C(=O)Nc1cc(-c2ccc(C(F)(F)F)cc2)sc1C(=O)O` is 121 µM; for `O=C(Nc1ccc(OC(F)(F)F)cc1C(=O)O)c1ccc(-c2ccccc2)cc1` it is 81.3 µM.
For the compound `CC(=O)OC(C)(C)/C=C/C(=O)[C@](C)(O)[C@H]1[C@H](O)C[C@@]2(C)[C@@H]3CC=C4[C@@H](C[C@H](O)C(=O)C4(C)C)[C@]3(C)C(=O)C[C@]12C`, the IC50 at 24 h in series [2] was 4.1 µM. Besides, in [3], the Kd turned out to be 1.2 µM.
With `Oc1ccc(Cl)cc1/C=N\N/C(=N/N=C/c1cc(Cl)ccc1O)N/N=C/c1cc(Cl)ccc1O`, in the series with THP-1, the IC50 stood at 0.2 µM.
Regarding `NC(=O)c1ccccc1/N=C/c1ccc(Br)s1`, the half-inhibitory concentration (IC50) in the series with K562 stood at 6.76 µM; in the series on HL-60, 21.6 µM; in [4], 5 µM.
`O=C(c1ccc(Cn2cc(CO)c3ccccc32)cc1)N1CCN(c2ccc3c(c2)OCO3)CC1`: the Kd in [5] stood at 1.4 µM. Also, the IC50 with NCI-H1299 came out at 0.8 µM.
As for `O=C(c1ccc(-n2cnnn2)cc1)N1CCCC(Nc2ccc3c(c2)OCO3)C1` (configuration not stated), in [6], the 50% inhibitory concentration (IC50) was determined as 91.1 µM.
